Legend:
BPLER cells [1] = assay: Mammosphere (tumorsphere) formation of BPLER cells after short-term drug treatment; type: cell-based, human; conditions: for BPLER cell capacity to form mammospheres (tumorsphere formation): 24 hours treatment, 24 hours recovery, 7 days drug-free sphere culture; for difference in response between BPLER and HMLER cells: BPLER vs HMLER
Method: (§1) Nor was any difference observed between BPLER and HMLER cells with paclitaxel or 5-fluorouracil (FIG. 3B). As noted above, tumorsphere formation capacity correlates with TSC subpopulations. With the tumorsphere assay employed, a single tumor cell can form a multicellular tumorsphere in suspension. To assess the short term effect of drug treatment, drugs were removed after treating the tumor cells in routine 2D culture conditions for 24 hours, and after a recovery period of 24 hours tumorsphere cultures were suspended in a medium free of drugs for 7 days.
(§2) BPLER and HMLER cells were maintained in WIT-T (Stemgent) and MGEM (Lonza) medium at 37° C. and 5% CO2. The remaining cell lines were grown in DMEM/F12 (Gibco) with 10% fetal bovine serum (FBS) at 37° C. and 5% CO2. The BPLER cells were grown on Primaria plasticware (BD Biosciences). The remaining cells were grown on standard plasticware (Falcon). The mammospheres were maintained in a 1:1 ratio of WIT-T/MEGM (less bovine pituitary extract) using 2% B27 (Invitrogen), 20 ng/ml EGF, 20 ng/ml bFGF (BD Biosciences), 4 ug/ml heparin (Sigma), and 0.5% methyl cellulose. Sphere formation experiments were carried out by plating 15,000-20,000 cells/well into 6-well ultra-low attachment plates (Corning). The cells were fed at days 1, 3, and 5, and spheres were counted at day 7.
(§3) Drug treatment experiments were performed in a 1:1 ratio of WIT-T/MEGM media. […] To evaluate the drug effect on 2D proliferation of BPLER and HMLER cells, the cells were plated at 125,000 cells/well in 6-well Primaria plates. Drug-containing media was added to each well after 24 hours. The cells were treated continuously for 4 days with drug-containing media changes each day. Cell number was counted with a hemocytometer after 4 days of treatment. To evaluate the drug effect on BPLER and HMLER cell mammosphere formation, cells were plated at 50% confluence in Primaria flasks. After 24 hours, drug-containing media was added to each flask. After 24 hours of treatment with the drug-containing media, the cells recovered for 24 hours in a drug-free media. Cells were then plated for the mammosphere protocol as described previously.

HMLER cells [2] = assay: Mammosphere (tumorsphere) formation of HMLER cells after short-term drug treatment; type: cell-based, human; conditions: 24 hours treatment, 24 hours recovery, 7 days drug-free sphere culture
Method: as §1, §2
as §3, with “Cells were then plated for the mammosphere protocol as described previously.” left out

BPLER cells [3] = type: cell-based, human; conditions: only when the drugs were present
Method: as §2
as §3, with “After 24 hours, drug-containing media was added to each flask. After 24 hours of treatment with the drug-containing media, the cells recovered for 24 hours in a drug-free media. Cells were then plated for the mammosphere protocol as described previously.” left out

HMLER cells [4] = assay: Drug effect on 2D proliferation of HMLER cells; type: cell-based, human; conditions: only when the drugs were present
Method: as §2
as §3, with “After 24 hours, drug-containing media was added to each flask. After 24 hours of treatment with the drug-containing media, the cells recovered for 24 hours in a drug-free media. Cells were then plated for the mammosphere protocol as described previously.” left out

[5] = tested on: other Class I and Class II HDACs; conditions: TSA treatment of breast tumor cells; cited from earlier work

Structure (SMILES) | BPLER cell capacity to form mammospheres (tumorsphere formation) (BPLER cells [1]) | difference in response between BPLER and HMLER cells (BPLER cells [1]) | HMLER cell capacity to form mammospheres (tumorsphere formation) (HMLER cells [2]) | cytotoxic effect on BPLER cells (BPLER cells [3]) | cytotoxic effect on HMLER cells (HMLER cells [4]) | changes in expression of other Class I and Class II HDACs [5]
CC(=O)O[C@H]1C(=O)[C@@]2(C)[C@H]([C@H](OC(=O)c3ccccc3)[C@]3(O)C[C@H](OC(=O)[C@H](O)[C@@H](NC(=O)c4ccccc4)c4ccccc4)C(C)=C1C3(C)C)[C@]1(OC(C)=O)CO[C@@H]1C[C@@H]2O [paclitaxel] | not inhibited | no difference | not inhibited | cytotoxic effect | cytotoxic effect | 
O=c1[nH]cc(F)c(=O)[nH]1 [5-fluorouracil] | not inhibited | no difference | not inhibited | cytotoxic effect | cytotoxic effect | 
CC(/C=C/C(=O)NO)=C\[C@@H](C)C(=O)c1ccc(N(C)C)cc1 [TSA, trichostatin A] | significantly decreased |  | did not affect |  |  | less than 2 fold

Source: patent US8912156B1, “Markers for and methods of targeting tumor stem cells” (Whitehead Institute for Biomedical Research, priority 2011, dated 2014)
